Laboratory results: patent publication US20260272878A1, “ADAR1 INHIBITORS AND USES THEREOF” (THE WISTAR INSTITUTE OF ANATOMY AND BIOLOGY, priority 2023, published 2026)
Entries after “also recorded” stand apart in the source; their conditions may differ. Where two headings read alike, the source gives them in different places.

Experiments:
[1] = tested on: IMR90 normal fibroblast cells; experiment: Cell killing / viability, IMR90; format: cell-based
Method: (§1) FIGS. 8A-8C show analysis of ADAR1i-124 effects in cancer cells. […] Viability was examined using the Apo Tox-Glo assay system. Control, 0.3% DMSO. Data: mean±SD (n=3). Significant differences identified by two-tailed Student's t-tests: *P<0.05, n.s., not significant. (FIG. 8B) Western blotting analysis of HeLa cells treated with ADAR1i-124 (10 μM).
(§2) FIGS. 9A-9C show dose-dependent killing of cancer cells and activation of IFN signaling. […] YUMM1.7 (FIG. 9B) and HGS2 cells (FIG. 9C) were treated with ADAR1i-124 at 10 μM (12 hrs). RNA samples were analyzed by qRT-PCR to monitor ISG expression levels. Data: mean±SD (n=3). Significant differences were identified by two-tailed Student's t-tests: ***P<0.001.
(§3) Dose-dependent selective killing of telomerase reactivated cancer cells was determined (FIG. 9A).

GAPDH = GAPDH (Homo sapiens, UniProt P04406); experiment: SPR binding to negative control protein GAPDH
Chain of GAPDH (P04406 whole entry, species assumed): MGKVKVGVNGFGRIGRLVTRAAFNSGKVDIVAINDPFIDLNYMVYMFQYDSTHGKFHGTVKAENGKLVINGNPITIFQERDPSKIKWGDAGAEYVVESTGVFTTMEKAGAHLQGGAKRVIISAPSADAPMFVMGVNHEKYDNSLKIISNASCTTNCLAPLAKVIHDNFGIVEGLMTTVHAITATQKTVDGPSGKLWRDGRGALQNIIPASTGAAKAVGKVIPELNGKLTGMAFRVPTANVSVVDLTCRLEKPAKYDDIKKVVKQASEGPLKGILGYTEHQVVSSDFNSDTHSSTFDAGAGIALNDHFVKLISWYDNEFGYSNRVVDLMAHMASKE
Text: (§4) FIGS. 5A-5D show Biacore SPR analysis for binding of ADAR1i to ADAR1p110. (FIG. 5A) SPR analysis for binding kinetics of 8 compounds to ADAR1p110-WT. ADAR1 inhibition positive (ADAR1i-13, ADAR1i-120, ADAR1i-124) and negative compounds. (FIG. 5B, FIG. 5C) […] of SPR analysis for binding of ADAR1i-13 and ADAR1i-124 to ADAR1p110-WT and ADAR1p110-E912A as well as negative control proteins, GAPDH and HuR, are shown. […] ADAR1-E912, equivalent of ADAR2 E396, is located in the catalytic center.

ADAR1p110-E912A = ADAR1p110-E912A (Homo sapiens, UniProt P55265, E912A); experiment: Biacore SPR binding to ADAR1p110-E912A mutant
Chain of ADAR1p110-E912A (P55265 296-1226 E912A): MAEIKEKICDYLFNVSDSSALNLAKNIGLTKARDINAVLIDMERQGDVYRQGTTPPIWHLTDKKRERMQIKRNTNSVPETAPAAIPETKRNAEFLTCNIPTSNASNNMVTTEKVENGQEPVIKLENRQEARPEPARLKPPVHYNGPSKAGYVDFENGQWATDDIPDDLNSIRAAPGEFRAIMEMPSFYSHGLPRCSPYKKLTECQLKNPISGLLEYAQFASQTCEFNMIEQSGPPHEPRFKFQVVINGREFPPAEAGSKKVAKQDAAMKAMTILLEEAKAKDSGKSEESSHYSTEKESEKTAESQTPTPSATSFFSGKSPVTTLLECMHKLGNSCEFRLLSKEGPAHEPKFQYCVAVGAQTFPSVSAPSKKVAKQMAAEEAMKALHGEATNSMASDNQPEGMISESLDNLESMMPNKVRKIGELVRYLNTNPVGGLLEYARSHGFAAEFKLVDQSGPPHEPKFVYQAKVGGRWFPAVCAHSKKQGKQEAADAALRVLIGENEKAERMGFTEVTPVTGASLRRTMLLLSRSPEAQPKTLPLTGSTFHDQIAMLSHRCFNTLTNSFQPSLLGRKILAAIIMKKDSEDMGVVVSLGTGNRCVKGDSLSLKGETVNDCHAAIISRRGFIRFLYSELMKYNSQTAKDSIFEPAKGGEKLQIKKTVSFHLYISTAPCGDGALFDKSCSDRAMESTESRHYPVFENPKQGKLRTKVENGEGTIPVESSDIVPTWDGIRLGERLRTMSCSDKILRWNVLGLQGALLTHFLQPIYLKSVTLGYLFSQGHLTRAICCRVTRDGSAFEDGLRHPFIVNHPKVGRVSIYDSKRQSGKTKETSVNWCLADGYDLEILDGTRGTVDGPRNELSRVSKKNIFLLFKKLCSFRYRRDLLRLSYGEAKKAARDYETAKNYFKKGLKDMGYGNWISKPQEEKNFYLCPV
Text: as §4
No complete 3-D structure of ADAR1 is currently available. […] The glutamate E912 and E396 in ADAR1 and ADAR2, respectively, plays an important proton transfer function during hydrolytic deamination reaction (42, 43).

[2] = tested on: human and mouse melanoma (telomerase reactivated) cell lines; experiment: Suppression of melanoma cell lines, comparison of inhibitors (not shown); format: cell-based
Method: as §3

HGS2 cells = experiment: qRT-PCR of ISG expression (IFN signaling), HGS2; format: cell-based, mouse; details: HGS2, 10 μM, 12 hrs
Method: as §2

YUMM1.7 cells = experiment: qRT-PCR of ISG expression (IFN signaling), YUMM1.7; format: cell-based, mouse; details: YUMM1.7, 10 μM, 12 hrs
Method: as §2, §3

HSG2 = experiment: Dose-dependent killing, HSG2; format: cell-based; details: mouse non-ALT cancer cells
Method: as §2

[3] = mouse, in vivo, ip
[4] = tested on: HeLa non-ALT cancer cells; experiment: Cancer cell killing / viability (Apo Tox-Glo), HeLa; format: cell-based, human; details: for Killing of HeLa cells: result in words
Method: as §1, §2, §3

[5] = Half-life in culture media by loss of cancer cell killing activity; format: in vitro ADME; details: determined by loss of cancer cell killing activity (data not shown), read-out: t1/2 in the culture media (converted)
Text: We will modify ADAR1i-124 and derive ADAR1i-124 analogs with higher potency (higher affinity binding and lower IC50) ready to be tested for animal model studies (next section).

HuR = HuR (Homo sapiens, UniProt Q15717); experiment: SPR binding to negative control protein HuR
Chain of HuR (Q15717 whole entry, species assumed): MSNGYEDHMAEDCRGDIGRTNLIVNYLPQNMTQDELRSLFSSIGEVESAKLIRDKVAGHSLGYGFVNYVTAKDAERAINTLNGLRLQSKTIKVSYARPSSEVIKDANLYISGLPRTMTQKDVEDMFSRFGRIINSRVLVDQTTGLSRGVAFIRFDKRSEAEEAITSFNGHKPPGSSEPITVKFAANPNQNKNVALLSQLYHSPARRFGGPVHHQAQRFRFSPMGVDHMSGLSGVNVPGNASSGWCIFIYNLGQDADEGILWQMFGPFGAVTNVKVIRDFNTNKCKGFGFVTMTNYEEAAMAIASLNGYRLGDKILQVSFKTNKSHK
Text: as §4

ADAR2 = molecular target: T1, ADAR2 (Homo sapiens, UniProt P78563); experiment: Binding to ADAR2 (not shown)
T1 sequence (P78563 1-741): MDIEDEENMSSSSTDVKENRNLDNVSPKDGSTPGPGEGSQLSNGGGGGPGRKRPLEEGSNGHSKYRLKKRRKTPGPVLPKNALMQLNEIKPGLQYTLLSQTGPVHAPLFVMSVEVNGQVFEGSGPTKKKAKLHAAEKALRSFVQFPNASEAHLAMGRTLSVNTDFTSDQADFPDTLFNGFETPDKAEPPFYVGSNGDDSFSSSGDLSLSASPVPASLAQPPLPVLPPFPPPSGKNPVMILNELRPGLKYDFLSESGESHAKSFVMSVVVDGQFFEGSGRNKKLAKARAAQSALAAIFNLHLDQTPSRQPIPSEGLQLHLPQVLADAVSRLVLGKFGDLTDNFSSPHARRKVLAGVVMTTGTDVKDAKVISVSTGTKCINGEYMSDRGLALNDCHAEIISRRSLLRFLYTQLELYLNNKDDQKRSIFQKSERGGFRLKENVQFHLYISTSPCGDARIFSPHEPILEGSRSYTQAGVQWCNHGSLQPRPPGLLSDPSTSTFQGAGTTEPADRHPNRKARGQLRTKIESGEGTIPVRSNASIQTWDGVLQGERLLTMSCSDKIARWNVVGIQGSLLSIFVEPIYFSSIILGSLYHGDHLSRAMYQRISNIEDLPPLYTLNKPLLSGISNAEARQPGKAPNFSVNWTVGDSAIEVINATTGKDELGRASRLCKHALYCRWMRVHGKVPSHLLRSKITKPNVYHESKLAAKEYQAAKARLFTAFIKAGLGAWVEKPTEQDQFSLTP

[6] = tested on: WM3000 PDX melanoma cell line; experiment: Dose-dependent killing, WM3000; format: cell-based; details: human PDX melanoma cell line
Method: as §2
Treatments and analysis. The efficacy of ADAR1i alone or combining with αPD1 Ab for suppression of tumor growth will be assessed as described in the previous section (Aim 2-1). We have at our disposal the largest collection (>500) of clinically and genetically annotated melanoma PDX. […] We will use the human melanoma cell lines/PDXs in subcutaneous tumor assays in the hu-BLT mice. Human melanomas will be established in the hu-BLT mice and randomized into 4 treatment groups (n=5 per group): 1) ADAR1i alone, 2) αPD-1 Ab alone, 3) combination ADAR1i/αPD-1, 4) control IgG. Tumor volumes and overall survival will be determined as described in the previous section (Aim 2-1). Tumors will be biopsied and blood collected at interval periods (at EOT, e.g. 7 days, at TTR, and at EOS) and analyzed for hallmark melanoma features as above. […]

YUMM1.7 = experiment: Dose-dependent killing, YUMM1.7; format: cell-based; details: mouse non-ALT cancer cells
Method: as §2

| Compound | Killing of IMR90 cells [1] | Binding to GAPDH (GAPDH) | Binding to ADAR1p110-E912A mutant (ADAR1p110-E912A) | Suppression of human and mouse melanoma cell lines relative to other inhibitors [2] | ISG expression / IFN signaling activation (HGS2 cells) | ISG expression / IFN signaling activation (YUMM1.7 cells) | Killing of HSG2 cells (HSG2) | Well tolerated dose [3] | Well tolerated dose ([3]; 5 days) | Viability of HeLa cells ([4]; 10 μM, Apo Tox-Glo, control 0.3% DMSO) | IC50 ([4]; Homo sapiens, HeLa, read-out: IC50 for selective killing of HeLa cells) [µM] | Killing of HeLa cells [4] | half-life [5] [h] | Binding to HuR (HuR) | Binding to ADAR2 (ADAR2) | Killing of WM3000 cells [6] | Killing of YUMM1.7 cells (YUMM1.7) |
| --- | --- | --- | --- | --- | --- | --- | --- | --- | --- | --- | --- | --- | --- | --- | --- | --- | --- |
| N#Cc1ccc(NC(=O)c2c(Cl)c3ccccc3n2CO)cc1 [ADAR1i-124] | not ALT U2OS cells or IMR90 normal fibroblast cells; also recorded: unaffected | did not bind | a binding kinetics different from that with ADAR1p110-WT | more efficiently than ADAR1i-13 and ADAR1i-120 | Activation of the IFN signaling | upregulated expression of interferon stimulated genes (ISGs) including MDA5, CXCL9, and CXCL10; also recorded: upregulated expression of known ISGs; also recorded: activated type I IFN signaling; also recorded: Activation of the IFN signaling | dose-dependently killed | up to 50 mg/kg | up to 50 mg/kg | selectively reduced viability | ~0.4 | killed selectively; also recorded: dose-dependently killed | ~12 | did not bind | bound also to ADAR2 | killed one PDX melanoma cell line, WM3000, in a dose-dependent manner; also recorded: dose-dependently killed | dose-dependently killed |
| N#Cc1ccc(NC(=O)c2sc3ccccc3c2Cl)cc1 [ADAR1i-13, 3-chloro-N-(4-cyanophenyl)-1-benzothiophene-2-carboxamide] | not ALT U2OS cells or IMR90 normal fibroblast cells | did not bind | did not bind |  |  |  |  |  |  |  |  | killed selectively |  | did not bind | bound also to ADAR2 |  |  |
| N#Cc1ccccc1NC(=O)c1sc2ccccc2c1Cl [ADAR1i-120] | not ALT U2OS cells or IMR90 normal fibroblast cells |  |  |  |  |  |  |  |  |  |  | killed selectively |  |  |  |  |  |
